From patent EP0436902B1, “5-Fluorouracil derivatives” (OTSUKA PHARMACEUTICAL CO., LTD., priority 1984, dated 1986)

Tested on: Sarcoma-180
Assay: Pharmacological Test I: antitumor effect on subcutaneously transplanted Sarcoma-180 solid tumor in mice
Format: in vivo
Settings: Mus musculus, 240 h; ICR mice, Sarcoma-180 2 X 10⁷ cells subcutaneously; oral, once a day for 7 consecutive days, suspended in 5 % gum arabic; tumor weight on the 10th day; from dose-response curve; read-out: ED₅₀ (50 % tumor inhibition dose in which T/C is 0.5)
Method: Isophthaloyl chloride (1.50 g) and 6.0 ml of triethylamine were added to a solution of 1.00 g of 5-fluoro-1-(2-tetrahydrofuranyl)uracil in 50 ml of dioxane. The mixture was refluxed for 1.5 hours. The resulting precipitate was removed by filtration and the filtrate was concentrated. To the concentrate was added 50 ml of methylene chloride and thereto added was 10 ml of a solution of 1.50 g of 2,6-bis(trimethylsilyloxy)pyridine in methylene chloride. The mixture was left to stand at room temperature for 3 hours. The solvent was distilled off and the residue was subjected to silica gel column chromatography using as an eluent 2 % methanol-chloroform, giving 0.30 g of the title compound in a yield of 14 %. ¹H-NMR(CDCl₃)δ: 8.66-8.19 (3H, m, [drawing 76] 7.83-7.62 (2H, m, [drawing 77] and C₄-H of the pyridine ring) 7.52 (1H, d, J = 6Hz, C₆-H) 6.77 and 6.68 (each 1H, d, J = 8Hz, C₃·₅-H of the pyridine ring) 5.99-5.92 (1H, m, C1'-H) 4.30-3.88 (2H, m, C4'-H) 2.44-1.89 (4H, m, C2'·3'-H) Pharmacological Test I • (a) Sarcoma-180 subcultured in an ascites of ICR mice was diluted with a physiological saline solution and subcutaneously transplanted into the backs of ICR mice in an amount of 2 X 10⁷ cells each. Twenty-four hours after the transplantation, a test compound suspended in a 5 % solution of gum arabic was orally administered to each of mice once a day for 7 consecutive days.
The solid tumor was extirpated from under the dorsal skin of mice on the 10th day after the transplantation to measure the weight of the tumor. There was determined the ratio (T/C) of the weight or tumor (T) cut out from the group of mice treated with the test compound to the weight of tumor (C) from the group of mice not treated therewith. The 50 % tumor inhibition dose (ED₅₀ value) in which T/C is 0.5 was determined from the dose-response curve of dosage and the ratio (T/C).
Table 1 below lists the results together with the value obtained by using as a control an anti-cancer preparation containing 5-fluoro-1-(2-tetrahydrofuranyl)uracil and uracil in a ratio by weight of 1 to 4.

SMILES	ED50 [mg/kg]
O=C(Oc1cc[nH]c(=O)c1)c1cccc(C(=O)n2c(=O)c(F)cn(C3CCCO3)c2=O)c1 (centres unmarked) [Example 1, 3-[3-(1,2-dihydro-2-oxo-4-pyridyloxycarbonyl)benzoyl]-5-fluoro-1-(2-tetrahydrofuranyl)uracil]	10
O=C(Oc1cc(OC(=O)c2cccc(C(=O)n3c(=O)c(F)cn(C4CCCO4)c3=O)c2)c(Cl)cn1)c1ccccc1 (centres unmarked) [Example 3, 3-[3-(2-benzoyloxy-5-chloro-4-pyridyloxycarbonyl)benzoyl]-5-fluoro-1-(2-tetrahydrofuranyl)uracil]	25
O=C(Oc1cc(OC(=O)c2ccccc2)c(Cl)cn1)c1cccc(C(=O)n2c(=O)c(F)cn(C3CCCO3)c2=O)c1 (centres unmarked) [Example 4, 3-[3-(4-benzoyloxy-5-chloro-2-pyridyloxycarbonyl)benzoyl]-5-fluoro-1-(2-tetrahydrofuranyl)uracil]	18
O=C(Oc1cc(=O)n(C2CCCO2)cc1Cl)c1cccc(C(=O)n2c(=O)c(F)cn(C3CCCO3)c2=O)c1 (centres unmarked) [Example 10, 3-[3-[5-chloro-1,2-dihydro-2-oxo-1-(2-tetrahydrofuranyl)-4-pyridyloxycarbonyl]benzoyl]-5-fluoro-1-(2-tetrahydrofuranyl)uracil]	28
N#Cc1ccc(OC(=O)c2ccco2)nc1OC(=O)c1cccc(C(=O)n2c(=O)c(F)cn(C3CCCO3)c2=O)c1 (centres unmarked) [Example 15, 3-[3-[3-cyano-6-(2-furoyloxy)-2-pyridyloxycarbonyl]benzoyl]-5-fluoro-1-(2-tetrahydrofuranyl)uracil]	18
